The record followed here is patent publication US9963443B2, “Radiolabeled compounds” (TAKEDA PHARMACEUTICAL COMPANY LIMITED, priority 2014, dated 2018).

For data set [1], the target named is CH24H (Macaca mulatta, UniProt I2CYF7). As to the kind of experiment: PET measurements and image analysis after intravenous bolus of radiotracer. It counts as in vivo, rhesus macaque (macaca mulatta). The following applies: for BPND in the putamen: Logan graphical analysis, cerebellum as reference region, t* 40 min. The protocol: Animals were fasted for 18-24 h before the study. At 2 h prior to injection of the radiopharmaceutical, the animals were anesthetized with intramuscular ketamine (10 mg/kg) and glycopyrrolate (0.01 mg/kg), transferred to the PET camera, and immediately intubated with an endrotracheal tube for continued anesthesia with 2.75% isoflurane administered through a rebreathing circuit. Body temperature was kept at 37° C. using a heated water blanket. Vital signs, including heart rate, blood pressure, respiration rate, oxygen saturation and body temperature, were monitored every 3 to 20 min during the study.
CH24H, sequence (I2CYF7 1-500): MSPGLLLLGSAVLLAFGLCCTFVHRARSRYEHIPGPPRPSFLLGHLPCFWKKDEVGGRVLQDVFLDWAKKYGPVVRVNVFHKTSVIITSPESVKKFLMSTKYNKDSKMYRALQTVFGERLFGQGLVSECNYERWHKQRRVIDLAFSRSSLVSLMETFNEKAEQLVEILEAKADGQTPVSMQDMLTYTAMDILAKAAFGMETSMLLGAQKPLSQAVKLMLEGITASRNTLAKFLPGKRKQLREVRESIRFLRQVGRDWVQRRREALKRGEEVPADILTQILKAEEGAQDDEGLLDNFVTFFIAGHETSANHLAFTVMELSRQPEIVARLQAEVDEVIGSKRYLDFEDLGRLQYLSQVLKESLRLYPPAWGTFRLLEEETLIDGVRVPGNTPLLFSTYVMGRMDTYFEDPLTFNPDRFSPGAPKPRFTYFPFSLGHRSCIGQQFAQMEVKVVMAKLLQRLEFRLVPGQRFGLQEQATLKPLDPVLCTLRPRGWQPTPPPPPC
The dynamic series were subsequently reconstructed using filtered back projection with corrections for random, scatter, and attenuation provided by the camera manufacturer.
Four samples of 5 mL were drawn at 3, 10, 30 and 60 min post injection to evaluate the stability in blood as well as the metabolite analysis method and HPLC conditions.
Reconstructed PET image data volumes were transferred to the image processing PMOD software package (PMOD Technologies, Zurich, Switzerland) where the images were realigned with the monkey's individual MRI to apply a volume of interest (VOI) template comprising the following regions: whole brain, caudate nucleus, putamen, globus pallidus, frontal cortex, temporal cortex, occipital cortex, parietal cortex, anterior cingulate cortex, posterior cingulated cortex, hippocampus, thalamus, and cerebellum. Average activity concentration (kBq/cc) within each VOI was determined and time activity curves (TAC) were generated for each study, depicting the regional brain activity concentration over time and reflecting total uptake (specific plus non displaceable). Time activity curves were also expressed in SUV (Standard Uptake Value) units (g/mL) by normalizing by the weight of the animal and the injected dose. Logan graphical analysis with reference region input function was applied to the regional time activity curves with t* fixed at 40 min to obtain an estimate of BPND (Binding Potential relative to the Non-Displaceable compartment), where the cerebellum was used as the reference region.

The target in data set [2] is human CH24H (Homo sapiens (Human), UniProt Q9Y6A2). Nature of the data set: Measurement of CH24H inhibitory activity (24-HC produced from [14C]cholesterol by human CH24H lysate). The data set is classed as biochemical. Particulars: [14C]cholesterol 15 μM, 37° C. for 5 hr. The protocol:
The expression of human CH24H was performed using FreeStyle 293 Expression System (Invitrogen). […] After transfection, the cells were cultured at 37° C., 8% CO2 with shaking at 125 rpm for 2 days. The cells were collected by centrifugation, and suspended in a suspension buffer (100 mM potassium phosphate (pH 7.4), 0.1 mM EDTA, 1 mM DTT, 20% Glycerol). The suspended product was disrupted by a polytron homogenizer (manufactured by Kinematica), and centrifuged at 9000×g for 10 min, and the supernatant was collected. The collected supernatant was cryopreserved (−80° C.) as a human CH24H lysate standard product.
For the measurement of CH24H inhibitory activity, using the human CH24H lysate prepared in Experimental Example 2, the amount of 24-HC produced from cholesterol by catalytic activity of CH24H was measured in the presence of a test compound, and compared with that measured in the absence of the test compound. That is, a test compound solution at various concentrations was mixed with a reaction buffer (50 mM potassium phosphate containing 0.1% BSA and Complete, EDTA-free, pH 7.4) and human CH24H lysate. Then, [^14C] cholesterol (53 mCi/mmol specific activity, 15 μM) was added, and CH24H reaction was performed at 37° C. for 5 hr. After completion of the reaction, a quenching solution consisting of chloroform/methanol/distilled water (2:2:1 v/v) was added, and the resulting 24-HC was extracted by shaking. The extract was applied to silica gel thin layer chromatography (ethyl acetate:toluene=4:6), and the obtained ^14C-24HC fraction was measured with BAS2500 (Fujifilm Corporation).
The inhibitory rate (%) and IC50 values (μM) were calculated from the ratio of radioactivity in the presence of a test compound relative to the radioactivity in the absence of the test compound.

Data set [3] has as its system other CNS related human receptors and enzymes. Nature of the data set: Selectivity assay over other CNS related human receptors and enzymes (Eurofins Panlabs, Tables 3-1 and 3-2). The data set is classed as binding. The following applies: at 10 μM. The protocol: The CH24H IC50 is a measure of the ability of the test compound to inhibit the action of the CH24H enzyme. To determine the selectivity of the test compounds for CH24H, inhibitory activities of the compound were determined for other CNS (central nerve system) related receptors and enzymes such as Adenosine A2B, Adrenergic β1, Adrenergic β2, Adrenergic β3, Angiotensin AT2, Bradykinin B1, Cannabinoid CB1, Carbonic Anhydrase II, Acetyl Cholinesterase, Cyclooxygenase (COX-1), Cyclooxygenase (COX-2), Dopamine D1, Dopamine D2L, Dopamine D3, Dopamine D4.2, GABA B1A, GABA B1B, Histamine H1, Histamine H2, Imidazoline I2 (Central), MAO A, MAO B, Muscarinic M1, Muscarinic M2, Muscarinic M3, Opiate κ (OP2, KOP), Opiate μ (OP3; MOP), Metalloproteinase, Phosphodiesterase 4 (PDE4), Phosphodiesterase 5 (PDE5), 5-HT2B, NK2, NK3, Dopamine transporter, Norepinephrine transporter, Serotonin transporter (SERT), Vasopressin V1A. […] Such a result is indicative of the selectivity of the compounds in use as radiotracers for quantitative imaging of CH24H. In general, one of ordinary skill in the art would appreciate that a substance is considered to be effectively used for quantitative imaging of CH24H if it has an activity in inhibiting other CNS related receptors and enzymes with less than 50% at 10 μM. […]

human CH24H, sequence (Q9Y6A2 whole entry): as the sequence (I2CYF7 1-500) above, with I87V, S417G, T494A counted along it

On to `O=C(C1CCN(c2cncnc2-c2ccc(F)cc2)CC1)N1CC([18F])C1` [Example 2, (3-[^18F]fluoroazetidin-1-yl) (1-(4-(4-fluorophenyl)pyrimidin-5-yl)piperidin-4-yl)methanone], for which the “BPND in the putamen” value in data set [1] worked out at 2.6. For the same compound, in data set [1] (rhesus monkey, in vivo), the brain kinetics entry is given as “favorable kinetics with a significant washout following the maximum uptake”; the “regional brain uptake (distribution)” value was “highest uptake in the putamen and caudate”. Further, in data set [1] (rhesus monkey, in vivo, iv), the “time of maximum SUV in the putamen” value was roughly 30 min post injection and the “whole-brain maximum % ID” value is 2.3%.
`CN(C(=O)C1CCN(c2cncnc2-c2ccc(F)cc2)CC1)C1CC1` [Reference Example 1, N-cyclopropyl-1-(4-(4-fluorophenyl)pyrimidin-5-yl)-N-methylpiperidine-4-carboxamide]: in data set [2], the IC50 – broadly, the concentration at which inhibition is half-maximal – was 0.0054 µM.
As to `O=C(C1CCN(c2cncnc2-c2ccc(F)cc2)CC1)N1CC(F)C1` [Reference Example 2, (3-fluoroazetidin-1-yl) (1-(4-(4-fluorophenyl)pyrimidin-5-yl)piperidin-4-yl)methanone], in data set [2], it took 0.0088 µM to reach half-maximal inhibition (IC50). The “inhibition in the assays listed in Tables 3-1 and 3-2” value in data set [3] is on record as “less than 50%”.
`CN(C(=O)C1CCN(c2cnccc2-n2cc(Cl)cn2)CC1)C1CCOCC1` [Reference Example 3, 1-(4-(4-chloro-1H-pyrazol-1-yl)pyridin-3-yl)-N-methyl-N-(tetrahydro-2H-pyran-4-yl)piperidine-4-carboxamide] yielded an IC50 in data set [2] of 0.0074 µM.
Same read-out and setting: under `Cc1cnn(-c2ccncc2N2CCC(C(=O)N3CC(F)C3)CC2)c1` [Reference Example 4, (3-fluoroazetidin-1-yl) (1-(4-(4-methyl-1H-pyrazol-1-yl)pyridin-3-yl)piperidin-4-yl)methanone] stands 0.0071 µM; under `O=C(C1CCN(c2cnccc2-n2cc(Cl)cn2)CC1)N1CC(F)C1` [Reference Example 5, (1-(4-(4-chloro-1H-pyrazol-1-yl)pyridin-3-yl)piperidin-4-yl) (3-fluoroazetidin-1-yl)methanone], 0.019 µM; under `O=C(C1CCN(c2cncnc2-c2ccc(F)cc2)CC1)N1CC[C@H](F)C1` [Reference Example 10, (1-(4-(4-fluorophenyl)pyrimidin-5-yl)piperidin-4-yl) ((3S)-3-fluoropyrrolidin-1-yl)methanone], 0.02 µM.
In turn, `O=C(C1CCN(c2cncnc2-c2ccc(F)cc2)CC1)N1CC[C@@H](F)C1` [Reference Example 11, (1-(4-(4-fluorophenyl)pyrimidin-5-yl)piperidin-4-yl) ((3R)-3-fluoropyrrolidin-1-yl)methanone] displayed an IC50 in data set [2] of 0.016 µM.
The same measure, in the same setting: in the case of `CN(C(=O)C1CCN(c2cnccc2-n2cc(Cl)cn2)CC1)[C@H]1CCOC1` [Reference Example 13, 1-(4-(4-chloro-1H-pyrazol-1-yl)pyridin-3-yl)-N-methyl-N-((3S)-tetrahydrofuran-3-yl)piperidine-4-carboxamide] it was 0.02 µM.
Consider `CN(C(=O)C1CCN(c2cnccc2-n2cc(Cl)cn2)CC1)[C@@H]1CCOC1` [Reference Example 14, 1-(4-(4-chloro-1H-pyrazol-1-yl)pyridin-3-yl)-N-methyl-N-((3R)-tetrahydrofuran-3-yl)piperidine-4-carboxamide], for which, in data set [2], 0.017 µM corresponded to half-maximal inhibition (IC50).
Compound `O=C(C1CCN(c2cnccc2-n2cc(Br)cn2)CC1)N1CC(F)C1` [Reference Example 20, (1-(4-(4-bromo-1H-pyrazol-1-yl)pyridin-3-yl)piperidin-4-yl) (3-fluoroazetidin-1-yl)methanone] showed an IC50 in data set [2] of 0.0069 µM.
Still for that read-out and setting: in the case of `Cc1cnc(-c2ccncc2N2CCC(C(=O)N3CC(F)C3)CC2)s1` [Reference Example 21, (3-fluoroazetidin-1-yl) (1-(4-(5-methyl-1,3-thiazol-2-yl)pyridin-3-yl)piperidin-4-yl)methanone] it was 0.0049 µM; in that of `Cc1cnn(-c2ccncc2N2CCN(C(=O)N(CCF)Cc3ccc(F)cc3)CC2)c1` [Reference Example 23, N-(4-fluorobenzyl)-N-(2-fluoroethyl)-4-(4-(4-methyl-1H-pyrazol-1-yl)pyridin-3-yl)piperazine-1-carboxamide], 0.017 µM; in that of `O=C(C1CCN(c2cnccc2-n2cc(C3CC3)cn2)CC1)N1CC(F)C1` [Reference Example 26, (1-(4-(4-cyclopropyl-1H-pyrazol-1-yl)pyridin-3-yl)piperidin-4-yl) (3-fluoroazetidin-1-yl)methanone], 0.01 µM.
“(1-(4-(4-chloro-1H-pyrazol-1-yl)pyridin-3-yl)piperidin-4-yl) (3-[^18F]fluoroazetidin-1-yl)methanone [Example 1]”: the “BPND in the putamen” value in data set [1] was found to be 2.3. The brain kinetics result in data set [1] (female rhesus macaque, PET time activity curves) is given as “favorable kinetics with a significant washout following the maximum uptake”. Further, in data set [1] (female rhesus macaque, PET time activity curves (FIG. 1, FIG. 2)), the “regional brain uptake (distribution)” value is “highest uptake in the putamen and caudate”. The “whole-brain maximum % ID” value in data set [1] (female rhesus macaque, i.v. bolus, PET) is on record as 1.6%.
